Like-named read-outs stand apart in the source and are kept apart here.
Assays:
LOX IMVI (Melanoma) = assay: NCI-60 screen (SRB, 48 h); format: cell-based; conditions: Homo sapiens; for GI50: read-out: GI50
MDA-MB-435 (Melanoma) = assay: NCI-60 screen (SRB, 48 h); format: cell-based
OVCAR-4 (Ovarian cancer) = assay: NCI-60 screen (SRB, 48 h); format: cell-based; conditions: Homo sapiens; for IC (TGI): OVCAR-4, 48 h; for GI50: OVCAR-4, read-out: GI50
Leukemia subpanel = assay: cells; conditions: Homo sapiens; for IC (TGI): 48 h, read-out: TGI MG_MID; for GI50: read-out: GI50 MG_MID
CNS cancer subpanel = assay: NCI-60 screen, subpanel; conditions: Homo sapiens; for IC (TGI): 48 h, read-out: TGI MG_MID; for GI50: read-out: GI50 MG_MID
RPMI-8226 (Leukemia) = assay: NCI-60 screen (SRB, 48 h); conditions: Homo sapiens; for GI50: RPMI-8226
HOP-92 (NSC lung cancer) = assay: NCI-60 screen (SRB, 48 h); conditions: Homo sapiens; for GI50: HOP-92; for IC (TGI): HOP-92, 48 h, read-out: TGI
[1] = test system: NCI-H226 (NSC lung cancer); assay: NCI-60 screen (SRB, 48 h); conditions: Homo sapiens; for GI50: NCI-H226
[2] = test system: NCI-H23 (NSC lung cancer); assay: NCI-60 screen (SRB, 48 h); conditions: Homo sapiens; for GI50: NCI-H23; for IC (TGI): NCI-H23, 48 h, read-out: TGI
HCC-2998 (Colon cancer) = assay: NCI-60 screen (SRB, 48 h); conditions: Homo sapiens; for GI50: HCC 2998
HCT-15 (Colon cancer) = assay: NCI-60 screen (SRB, 48 h); conditions: Homo sapiens; for GI50: HCT-15; for IC (TGI): HCT-15, 48 h, read-out: TGI
SF-539 (CNS cancer) = assay: NCI-60 screen (SRB, 48 h); conditions: Homo sapiens; for GI50: SF-539; for IC (TGI): SF-539, 48 h, read-out: TGI
MALME-3M (Melanoma) = assay: NCI-60 screen (SRB, 48 h); conditions: Homo sapiens
M14 (Melanoma) = assay: NCI-60 screen (SRB, 48 h); conditions: for GI50: M14; for IC (TGI): M14, 48 h, read-out: TGI
SK-MEL-2 (Melanoma) = assay: NCI-60 screen (SRB, 48 h); conditions: Homo sapiens; for GI50: SK-MEL-2; for IC (TGI): SK-MEL-2, 48 h, read-out: TGI; for CC50: SK-MEL-2, read-out: LC50
SK-MEL-28 (Melanoma) = assay: NCI-60 screen (SRB, 48 h); conditions: Homo sapiens; for GI50: SK-MEL-28; for IC (TGI): SK-MEL-28, 48 h, read-out: TGI
UACC-257 (Melanoma) = assay: NCI-60 screen (SRB, 48 h); conditions: Homo sapiens; for GI50: UACC-257; for IC (TGI): UACC-257, 48 h, read-out: TGI
OVCAR-5 (Ovarian cancer) = assay: NCI-60 screen (SRB, 48 h); conditions: Homo sapiens; for GI50: OVCAR-5
OVCAR-8 (Ovarian cancer) = assay: NCI-60 screen (SRB, 48 h); conditions: Homo sapiens; for GI50: OVCAR-8
[3] = test system: NCI/ADR-RES (Ovarian cancer); assay: NCI-60 screen (SRB, 48 h); conditions: Homo sapiens
SK-OV-3 (Ovarian cancer) = assay: NCI-60 screen (SRB, 48 h); conditions: Homo sapiens; for GI50: SK-OV-3; for IC (TGI): SK-OV-3, 48 h, read-out: TGI
SN12C (Renal cancer) = assay: NCI-60 screen (SRB, 48 h); conditions: Homo sapiens; for IC (TGI): 48 h, read-out: TGI
[4] = test system: MDA-MB-31/ATCC (Breast cancer); assay: NCI-60 screen (SRB, 48 h); conditions: Homo sapiens; for IC (TGI): 48 h, read-out: TGI
HS 578T (Breast cancer) = assay: NCI-60 screen (SRB, 48 h); conditions: Homo sapiens
[5] = test system: panel of approximately 60 cancer cell lines; assay: NCI-60 screen (SRB, 48 h), full panel; conditions: for activity at 10 µM / IC (TGI) / GI50 / CC50: Homo sapiens; for activity at 10 µM / IC (TGI): 48 h; for IC (TGI): read-out: TGI MG_MID60, average over all cell lines; for CC50: read-out: LC50 MG_MID60, average over all cell lines
[6] = read-out: GI50 against all human tumor cell lines

For C=C(C)[C@@H]1CC[C@]2(C(=O)N[C@H](CO)Cc3ccccc3)CC[C@]3(C)[C@H](CC[C@@H]4[C@@]5(C)CCCNC(C)(C)[C@@H]5CC[C@]43C)[C@@H]12 [Compound 11], the IC (TGI) (LOX IMVI (Melanoma); 48 h) was 2.42 µM, the GI50 (LOX IMVI (Melanoma)) was 1.07 µM and the IC (TGI) (MDA-MB-435 (Melanoma); Homo sapiens, MDA-MB-435, 48 h; read-out: TGI) was 2.36 µM. For the same compound, the GI50 (MDA-MB-435 (Melanoma); Homo sapiens, MDA-MB-435; read-out: GI50) was 1.1 µM, the IC (TGI) (OVCAR-4 (Ovarian cancer)) was 0.94 µM and the GI50 (OVCAR-4 (Ovarian cancer)) was 0.24 µM. It also gave an IC (TGI) (Leukemia subpanel) of 1.03 µM, a GI50 (Leukemia subpanel) of 0.34 µM and an IC (TGI) (CNS cancer subpanel) of 3.08 µM. The GI50 (CNS cancer subpanel) was 1.51 µM, the CC50 (CNS cancer subpanel; read-out: LC50 MG_MID) was 5.72 µM and the GI50 (RPMI-8226 (Leukemia)) was 0.24 µM. It also gave an IC (TGI) (RPMI-8226 (Leukemia); RPMI-8226, 48 h, read-out: TGI) of 0.63 µM, a GI50 (HOP-92 (NSC lung cancer)) of 1.42 µM and an IC (TGI) (HOP-92 (NSC lung cancer)) of 3.01 µM. It also gave a CC50 (HOP-92 (NSC lung cancer); HOP-92, read-out: LC50) of 6.42 µM, a GI50 [1] of 1.74 µM and an IC (TGI) ([1]; NCI-H226, 48 h, read-out: TGI) of 4.01 µM. For the same compound, the GI50 [2] was 1.6 µM, the IC (TGI) [2] was 3.17 µM and the GI50 (HCC-2998 (Colon cancer)) was 1.61 µM. For the same compound, the IC (TGI) (HCC-2998 (Colon cancer); HCC 2998, 48 h, read-out: TGI) was 3.05 µM, the GI50 (HCT-15 (Colon cancer)) was 0.97 µM and the IC (TGI) (HCT-15 (Colon cancer)) was 2.32 µM. The GI50 (SF-539 (CNS cancer)) was 1.73 µM, the IC (TGI) (SF-539 (CNS cancer)) was 3.19 µM and the GI50 (MALME-3M (Melanoma)) was 1.42 µM. The GI50 (M14 (Melanoma); Homo sapiens) was 0.74 µM, the IC (TGI) (M14 (Melanoma); Homo sapiens) was 2.19 µM and the GI50 (SK-MEL-2 (Melanoma)) was 1.72 µM. The IC (TGI) (SK-MEL-2 (Melanoma)) was 3.18 µM, the CC50 (SK-MEL-2 (Melanoma)) was 5.87 µM and the GI50 (SK-MEL-28 (Melanoma)) was 1.55 µM. It also gave an IC (TGI) (SK-MEL-28 (Melanoma)) of 3.03 µM, a GI50 (UACC-257 (Melanoma)) of 1.78 µM and an IC (TGI) (UACC-257 (Melanoma)) of 3.34 µM. For the same compound, the CC50 (UACC-257 (Melanoma); UACC-257, read-out: LC50) was 6.25 µM, the GI50 (OVCAR-5 (Ovarian cancer)) was 1.69 µM and the IC (TGI) (OVCAR-5 (Ovarian cancer); OVCAR-5, 48 h, read-out: TGI) was 3.18 µM. For the same compound, the GI50 (OVCAR-8 (Ovarian cancer)) was 1.12 µM, the IC (TGI) (OVCAR-8 (Ovarian cancer); OVCAR-8, 48 h, read-out: TGI) was 2.8 µM and the GI50 [3] was 1.35 µM. It also gave an IC (TGI) ([3]; 48 h, read-out: TGI) of 3.01 µM, a GI50 (SK-OV-3 (Ovarian cancer)) of 1.73 µM and an IC (TGI) (SK-OV-3 (Ovarian cancer)) of 3.23 µM. The GI50 (SN12C (Renal cancer)) was 1.81 µM, the IC (TGI) (SN12C (Renal cancer)) was 3.55 µM and the GI50 [4] was 1.34 µM. It also gave an IC (TGI) [4] of 2.77 µM, a GI50 (HS 578T (Breast cancer)) of 1.61 µM and an IC (TGI) (HS 578T (Breast cancer); 48 h, read-out: TGI) of 3.78 µM. The “number of cancer cell lines the compound was active against” value ([5]; 1 dose 10 µM) was “effective against the all NCI-60 cancer cell line panel”, the activity at 10 µM ([5]; read-out: Mean Growth, %) was -83.1% and the activity at 10 µM ([5]; read-out: Range of Growth, %) was -97.9 to -46.7%. The IC (TGI) [5] was 2.64 µM, the GI50 ([5]; read-out: GI50 MG_MID60) was 1.29 µM and the GI50 [5, 6] was less than 3 µM. It also gave a GI50 ([5]; read-out: GI50 against the most sensitive cell lines) of 0.2 to 0.94 µM and a CC50 [5] of 5.62 µM.
C[C@H]1[C@H](C)CC[C@]2(C(=O)Nc3ccc4ncccc4c3)CC[C@]3(C)C(=CC[C@@H]4[C@@]5(C)CCCNC(C)(C)[C@@H]5CC[C@]43C)[C@H]12 [Compound 14] showed a GI50 (LOX IMVI (Melanoma)) of 1.78 µM, a GI50 (MDA-MB-435 (Melanoma); Homo sapiens, MDA-MB-435) of 1.58 µM and an IC (TGI) (MDA-MB-435 (Melanoma); Homo sapiens, MDA-MB-435, 48 h, read-out: TGI) of 3 µM. For the same compound, the “Growth % of the Most Sensitive Cell Lines” value (MDA-MB-435 (Melanoma); MDA-MB-435, 1 dose 10 µM) was −91.82%, the IC (TGI) (OVCAR-4 (Ovarian cancer)) was 3.25 µM and the GI50 (OVCAR-4 (Ovarian cancer)) was 1.66 µM. It also gave an IC (TGI) (Leukemia subpanel) of 3.63 µM, a GI50 (Leukemia subpanel) of 1.58 µM and an IC (TGI) (CNS cancer subpanel) of 3.17 µM. For the same compound, the GI50 (CNS cancer subpanel) was 1.67 µM, the GI50 (RPMI-8226 (Leukemia)) was 1.6 µM and the GI50 (HOP-92 (NSC lung cancer)) was 1.54 µM. For the same compound, the IC (TGI) (HOP-92 (NSC lung cancer)) was 3.14 µM, the GI50 [1] was 2.1 µM and the GI50 [2] was 1.76 µM. It also gave an IC (TGI) [2] of 3.39 µM, a GI50 (HCC-2998 (Colon cancer)) of 1.4 µM and a GI50 (HCT-15 (Colon cancer)) of 1.59 µM. It also gave an IC (TGI) (HCT-15 (Colon cancer)) of 3.15 µM, a GI50 (SF-539 (CNS cancer)) of 1.61 µM and an IC (TGI) (SF-539 (CNS cancer)) of 3.01 µM. It also gave a GI50 (MALME-3M (Melanoma)) of 1.66 µM, a GI50 (M14 (Melanoma); Homo sapiens) of 1.94 µM and an IC (TGI) (M14 (Melanoma); Homo sapiens) of 3.59 µM. For the same compound, the CC50 (M14 (Melanoma); Homo sapiens, M14, read-out: LC50) was 6.65 µM, the “Growth % of the Most Sensitive Cell Lines” value (M14 (Melanoma); M14, 1 dose 10 µM) was −92.02% and the GI50 (SK-MEL-2 (Melanoma)) was 1.84 µM. It also gave an IC (TGI) (SK-MEL-2 (Melanoma)) of 3.43 µM, a CC50 (SK-MEL-2 (Melanoma)) of 6.42 µM and a GI50 (SK-MEL-28 (Melanoma)) of 1.66 µM. The IC (TGI) (SK-MEL-28 (Melanoma)) was 3.11 µM, the GI50 (UACC-257 (Melanoma)) was 1.87 µM and the IC (TGI) (UACC-257 (Melanoma)) was 3.54 µM. For the same compound, the GI50 (OVCAR-5 (Ovarian cancer)) was 1.68 µM, the GI50 (OVCAR-8 (Ovarian cancer)) was 1.86 µM and the GI50 [3] was 1.91 µM. For the same compound, the GI50 (SK-OV-3 (Ovarian cancer)) was 1.77 µM, the IC (TGI) (SK-OV-3 (Ovarian cancer)) was 3.27 µM and the GI50 (SN12C (Renal cancer)) was 1.73 µM. The IC (TGI) (SN12C (Renal cancer)) was 3.33 µM, the GI50 [4] was 1.8 µM and the IC (TGI) [4] was 3.4 µM. The GI50 (HS 578T (Breast cancer)) was 1.96 µM, the “Positive Cytostatic Effect (cell lines with percent growth 0 to 50 / total)” value ([5]; 1 dose 10 µM) was 3/59 and the “Positive Cytotoxic Effect (cell lines with percent growth < 0 / total)” value ([5]; 1 dose 10 µM) was 42/59. For the same compound, the “number of cancer cell lines the compound was active against” value ([5]; 1 dose 10 µM) was 45 cell lines, the activity at 10 µM ([5]; read-out: Mean Growth, %) was -27.9% and the activity at 10 µM ([5]; read-out: Range of Growth, %) was -100 to 110%. The IC (TGI) [5] was 3.35 µM, the GI50 ([5]; read-out: GI50 MG_MID60) was 1.72 µM and the GI50 [5, 6] was less than 3 µM. The CC50 [5] was 6.52 µM.
